Laboratory results from ChEMBL document CHEMBL1201862, “PubChem BioAssay data set” (2004).
Active and inactive are the calls of the source.

Assays:
[1] = ZM109 Env clade C HIV-1 fusion inhibitors, dose response, HeLa effector, CEM target cells, luciferase, cherry-pick (AID 652058); format: functional, cell-based
[2] = inhibitors of HIV Env-driven cell fusion, dose response, cherry-pick (AID 652057); format: functional, cell-based
[3] = CEM21 lymphoblast cell cytotoxicity, dose response, cytotoxicity control for viral fusion inhibitor project, CellTiter-Glo luminescence, cherry-picked (AID 652042); format: functional, cell-based;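 also: potency for signal decrease meaning cytotoxicity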
[4] = off-target signal loss in HeLa-CEM21 co-culture – HeLa F-luc CTL cells, cherry-picked, counter-screen for HIV-1 Env fusion inhibitor project, dose response (AID 652040); format: functional, cell-based;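 also: potency for signal decrease marking cytotoxic or nonspecific inhibition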
[5] = inhibitors of clade B AD8 Env fusion, dose response, cell-based, cherry-pick (AID 652062); format: functional;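 also: luciferase signal from cell-cell fusion driven by HIV-1 clade B AD8 Env; potency is for inhibitors of fusion seen as a drop in luminescence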
[6] = Artemis endonuclease inhibitor potency, dose response, biochemical, fluorescence intensity (AID 720701); format: functional;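 also: Artemis endonuclease enzyme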
[7] = target: Induced myeloid leukemia cell differentiation protein Mcl-1 (Homo sapiens, UniProt Q07820); format: functional
[8] = target: T1, Apoptotic protease-activating factor 1 (Homo sapiens, UniProt O14727); format: functional
T1 sequence (O14727 whole entry): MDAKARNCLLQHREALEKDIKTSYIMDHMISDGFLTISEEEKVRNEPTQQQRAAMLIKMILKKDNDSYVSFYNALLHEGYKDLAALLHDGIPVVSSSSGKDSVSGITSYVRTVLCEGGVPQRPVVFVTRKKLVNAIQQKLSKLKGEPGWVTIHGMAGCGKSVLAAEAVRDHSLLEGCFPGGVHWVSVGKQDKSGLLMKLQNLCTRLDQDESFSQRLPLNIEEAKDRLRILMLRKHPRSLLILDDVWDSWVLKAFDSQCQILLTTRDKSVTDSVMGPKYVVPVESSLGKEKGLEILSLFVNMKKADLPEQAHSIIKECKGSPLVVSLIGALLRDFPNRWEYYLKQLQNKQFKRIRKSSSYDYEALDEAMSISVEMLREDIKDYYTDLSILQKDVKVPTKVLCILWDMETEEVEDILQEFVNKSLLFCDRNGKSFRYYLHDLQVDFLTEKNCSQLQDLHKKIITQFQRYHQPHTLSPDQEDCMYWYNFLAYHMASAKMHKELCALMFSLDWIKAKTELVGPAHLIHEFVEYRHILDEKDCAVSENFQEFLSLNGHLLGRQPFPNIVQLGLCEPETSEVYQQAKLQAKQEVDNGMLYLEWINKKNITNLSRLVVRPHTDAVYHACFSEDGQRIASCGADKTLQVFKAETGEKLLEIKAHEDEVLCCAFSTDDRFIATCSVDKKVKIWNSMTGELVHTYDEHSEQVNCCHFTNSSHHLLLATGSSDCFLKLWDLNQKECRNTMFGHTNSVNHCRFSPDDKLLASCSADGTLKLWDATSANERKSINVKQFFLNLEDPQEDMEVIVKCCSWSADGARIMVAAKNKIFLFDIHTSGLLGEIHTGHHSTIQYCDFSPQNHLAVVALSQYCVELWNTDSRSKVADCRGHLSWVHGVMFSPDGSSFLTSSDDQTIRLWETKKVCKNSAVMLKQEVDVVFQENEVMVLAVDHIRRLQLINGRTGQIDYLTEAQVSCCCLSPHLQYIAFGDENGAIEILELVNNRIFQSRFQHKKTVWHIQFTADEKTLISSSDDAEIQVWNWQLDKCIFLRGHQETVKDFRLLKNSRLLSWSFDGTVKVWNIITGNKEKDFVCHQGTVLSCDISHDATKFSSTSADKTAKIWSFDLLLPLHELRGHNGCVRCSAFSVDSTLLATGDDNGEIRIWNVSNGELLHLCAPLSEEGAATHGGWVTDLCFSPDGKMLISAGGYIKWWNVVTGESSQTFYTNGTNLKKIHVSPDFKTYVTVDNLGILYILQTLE

Vero = Vero cell cytotoxicity, cytotoxicity control for flavivirus capping enzyme inhibitors (AID 588742); format: functional; conditions: Chlorocebus sabaeus
HEK293 = assay: inhibitors of LMP1-driven NF-kB reporter, dose response, cell-based, HEK293, luciferase, cherry-pick (AID 588343); format: functional; conditions: Homo sapiens
[9] = target: NAD-dependent protein deacylase sirtuin-5, mitochondrial (Homo sapiens, UniProt Q9NXA8); assay: SIRT5 desuccinylase inhibitors, dose response, biochemical, fluorescence imaging, cherry-pick, set 5 (AID 720591);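 also: desuccinylation of succinyl peptide AMC substrate read as fluorescence after trypsin release; potency of inhibitors that lower fluorescence and may act on trypsin instead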
Major prion protein = Major prion protein (Homo sapiens, UniProt P04156); format: functional, cell-based
[10] = target: T2, Mannose-6-phosphate isomerase (Homo sapiens, UniProt P34949); assay: human PMI inhibitors, high substrate, primary screen, biochemical, fluorescence intensity, high mannose 6-phosphate (AID 1220)
T2 sequence (P34949 whole entry): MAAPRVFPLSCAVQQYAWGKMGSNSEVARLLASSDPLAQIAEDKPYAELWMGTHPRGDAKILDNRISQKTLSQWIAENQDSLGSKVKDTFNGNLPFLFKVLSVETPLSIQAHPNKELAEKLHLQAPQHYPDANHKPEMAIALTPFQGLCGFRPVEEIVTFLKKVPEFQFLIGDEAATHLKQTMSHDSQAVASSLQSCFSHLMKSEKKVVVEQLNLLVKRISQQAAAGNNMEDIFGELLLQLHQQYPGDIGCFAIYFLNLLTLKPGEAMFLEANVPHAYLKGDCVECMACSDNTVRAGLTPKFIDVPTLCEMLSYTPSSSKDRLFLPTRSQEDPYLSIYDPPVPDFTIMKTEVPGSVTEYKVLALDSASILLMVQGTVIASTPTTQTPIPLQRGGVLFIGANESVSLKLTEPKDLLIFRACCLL

[11] = growth suppression of beta-catenin-knockout colon cells, dose response, cell-based, HCT116, human colon tumor (AID 1045); format: functional;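 also: HCT116 colon tumor cells with beta catenin knocked out; cells exposed to compound for 60 hours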
[12] = tested on: Streptococcus sp. 'group A'; assay: growth inhibition of control SK(-) GAS strain, dose response, counter-screen for streptokinase expression inhibitor project, luminescence, kanamycin, BacTiterGlo, confirmation (AID 1900); format: functional, organism-based
Protein skinhead-1 = target: T3, Protein skinhead-1 (Caenorhabditis elegans, UniProt P34707); format: functional
T3 sequence (P34707 whole entry): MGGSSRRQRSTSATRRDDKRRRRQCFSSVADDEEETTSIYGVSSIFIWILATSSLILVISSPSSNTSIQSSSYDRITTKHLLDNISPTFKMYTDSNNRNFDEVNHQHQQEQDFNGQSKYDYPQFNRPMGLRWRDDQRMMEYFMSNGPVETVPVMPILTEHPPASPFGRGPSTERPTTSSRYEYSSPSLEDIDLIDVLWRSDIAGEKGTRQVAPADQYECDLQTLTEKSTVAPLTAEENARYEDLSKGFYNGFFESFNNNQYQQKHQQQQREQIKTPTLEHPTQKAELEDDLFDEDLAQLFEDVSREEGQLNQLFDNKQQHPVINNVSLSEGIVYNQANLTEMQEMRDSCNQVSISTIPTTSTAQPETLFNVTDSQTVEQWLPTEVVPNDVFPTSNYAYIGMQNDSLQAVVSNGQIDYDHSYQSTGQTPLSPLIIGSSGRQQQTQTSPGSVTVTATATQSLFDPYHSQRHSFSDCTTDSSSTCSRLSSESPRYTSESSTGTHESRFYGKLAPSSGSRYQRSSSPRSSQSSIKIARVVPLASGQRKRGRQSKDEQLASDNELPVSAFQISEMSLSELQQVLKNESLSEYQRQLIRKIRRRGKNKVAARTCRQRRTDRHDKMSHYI

Streptococcus = assay: Group A Streptococcus viability loss, dose response, counter-screen for streptokinase expression inhibitor project, luminescence, BacTiterGlo (AID 1915); format: functional, organism-based;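 also: potency for reduction of bacterial viability or growth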
Streptokinase A = target: T4, Streptokinase A (Streptococcus pyogenes serotype M1, UniProt P10520); assay: S. pyogenes streptokinase expression inhibitors, potency, dose response, plasminogen activation absorbance, OD405 (AID 1914); format: functional, Streptococcus pyogenes M1 GAS;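 also: secreted streptokinase activity via plasminogen activation per viability signal from cell pellet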
T4 sequence (P10520 whole entry): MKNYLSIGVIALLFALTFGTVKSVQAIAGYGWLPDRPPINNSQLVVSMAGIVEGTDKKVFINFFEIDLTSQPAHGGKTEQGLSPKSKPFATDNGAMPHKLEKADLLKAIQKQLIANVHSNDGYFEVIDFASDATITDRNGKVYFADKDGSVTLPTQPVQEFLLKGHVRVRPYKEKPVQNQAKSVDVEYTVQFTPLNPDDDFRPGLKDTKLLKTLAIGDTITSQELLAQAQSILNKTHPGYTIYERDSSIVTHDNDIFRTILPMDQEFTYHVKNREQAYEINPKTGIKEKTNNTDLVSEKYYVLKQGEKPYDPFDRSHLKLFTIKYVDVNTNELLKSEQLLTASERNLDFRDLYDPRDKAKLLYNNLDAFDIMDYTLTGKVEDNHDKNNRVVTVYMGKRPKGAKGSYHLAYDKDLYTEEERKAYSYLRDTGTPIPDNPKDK

[13] = target: Disintegrin and metalloproteinase domain-containing protein 17 (Homo sapiens, UniProt P78536); assay: ADAM17 protease inhibitors, dose response, counter-screen for ADAM10 exosite inhibitor project, biochemical, quenched FRET substrate (AID 743253)
[14] = growth suppression of PTEN-null colon cells, dose response, cell-based, HCT116 PTEN knockout (AID 1047); format: functional;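 also: HCT116 colon tumor cells with PTEN knocked out; cells exposed to compound for 60 hours before readout; potency for loss of cell viability measured by luminescence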

Which AC50 [1] does the source give for Cc1ccc(NC(=O)c2ccc(-c3nn(C)c(=O)c4ccccc34)cc2)cc1 here?
The AC50 was 3.31 µM (active).

What about the AC50 [2] of the same compound?
Its AC50 is 24.9 µM (active).

And the AC50 [3]?
The AC50 was 57.8 µM (active).

And the AC50 [4]?
Its AC50 is 16.8 µM (active).

And the AC50 [5]?
Its AC50 is 6.49 µM (active).

With Cc1ccc(N=Nc2c(N)nn3c(O)cc(-c4ccccc4)nc23)cc1 as the compound, how does the IC50 [6] read?
Its IC50 is 16.9 µM (active).

And the IC50 [7]?
Its IC50 is 12.9 µM (active).

And the IC50 [8]?
Its IC50 is 13.8 µM (active).

And the CC50 (Vero)?
The CC50 was 25.1 µM (active).

What does the source list for C/C=C/c1ccc(OCCOCCNCc2ccccc2)c(OC)c1?
AC50 [1]: 5.73 µM (active); AC50 [2]: 3.51 µM (active); AC50 [3]: 33.7 µM (active); AC50 [4]: 4.93 µM (active); AC50 [5]: 12.2 µM (active)

Which AC50 (HEK293) does the source give for CC(Sc1nc(-c2ccc(F)cc2)cs1)C(=O)N1c2ccccc2CC1C (configuration not stated) here?
The AC50 was 117 µM (active).

And the AC50 [9]?
Its AC50 is > 30 µM (inactive).

For COC(=O)CSc1ncnc2scc(-c3ccccc3)c12, which IC50 (cells) is on record?
The IC50 was > 138 µM (inactive).

What about the IC50 (Major prion protein) of the same compound?
Its IC50 is 5.59 µM (active).

For CCOc1cccc(C(=O)NC(=S)Nc2ccc(N3CCCC3)cc2)c1, which IC50 [6] is on record?
Its IC50 is > 20 µM (inactive).

Which IC50 [10] does the source give for Oc1nc2cc3c(cc2cc1CN(Cc1cccnc1)C(S)=NCc1ccco1)OCCO3 here?
The IC50 was > 50 µM (not active).

Which results are given for COc1ccc(S(=O)(=O)Nc2cc3c4c(oc3c3ccccc23)CC(C)(C)CC4=O)cc1?
EC50 [11]: 26.6 µM (active); EC50 [12]: 9.62 µM (active); IC50 (Protein skinhead-1): > 100 µM (inactive); EC50 (Streptococcus): 78.6 µM (active); EC50 (Streptokinase A): 97 µM (active); IC50 [13]: > 69.5 µM (inactive); EC50 [14]: 20.1 µM (active)
